Source: patent US20180235213A1, “PLANT HORMONE APPLICATION” (The State of Israel Ministry of Agriculture & Rural …, priority 2015, published 2018)

Columns and labels:
olive seedling = assay: Application to olive seedling stem under greenhouse conditions (parafilm, flexible or rigid tubes); details: rigid tubes
Experimental: EGO10 either with PVAc, or HPC+glycerin were applied on olive seedling stem by the use of parafilm cover as the apparatus, under greenhouse conditions (FIG. 15). Greenhouse conditions include controlled room temperature of 25° C. In each experiment, 10 plants were used for each treatment. The substances were applied on the stem by a spatula and covered with parafilm.
In attempt to improve the performance of the apparatus, different substances and different cover were used. Four formulations were developed and tested. These formulations are based on polysaccharide-sorbent-humidifier substances while the main difference between them is the viscosity of the final product and the ability to retain and release of the active ingredient (EGO 10). […] The cover consisted of a flexible plastic tube that was cut (FIG. 16A), placed on the seedling stem (FIG. 16B) and wrapped with transparent plaster (FIG. 16C). The plastic tubes were filled with the experimental material (FIG. 16D). Moist cotton was placed on both sides of the tubes to minimize water evaporation (FIG. 16E and FIG. 16F). Bud outgrowth was measured for 30 days.
Rigid plastic tubes were tested in order to determine their efficiency as a delivery device for application of the hormone formulations to plants. At first, eppendorf tubes served as prototype. The tubes ware cut from top to bottom and placed on the stem of seedlings. Each tube was sealed with a small moist cotton at the bottom, filled with 1 ml of the examined material and finally covered with transparent plastic tape (FIGS. 17A-17E). The tubes were filled with (HPC+glycerin), or PVAc and EGO10 In each experiment, 10 plants were used for each treatment. Greenhouse conditions include controlled room temperature of 25° C.
EGO10 (10 μM) or acetone control together with HPC+glycerin or PVAc were applied on the stem of olive cuttings by the use of rigid plastic tubes as described in Example 10 above.
Bud outgrowth of olive cuttings was measured until day 30.

olive seedlings = assay: Application via rigid tubes to olive seedlings under commercial nursery conditions; type: in vivo, Olea europaea L.; details: 50 μM with HPC+glycerin
Experimental: Experiments were performed in AGROGOLD nurseries under commercial nursery conditions, which include nethouse, 40% shed without temperature control. The tested formulations were applied in rigid tubes. […] The tube was sealed and fixed to the plant by cello tape. The tube was completely filled with ˜1 ml of the experimental formulation and then the top was covered with cotton (FIGS. 20A-20F). Each experiment included 10 olive plants for each treatment. The number of wake up buds was counted 75 days following application and the seedlings architecture, general growth and development were examined.
The bud growth effect of EGO10 (50 μM) or acetone control, each supplied together with HPC+glycerin on the stem of the olive cuttings was tested under the nursery conditions.

Roses (Rosa Hybrida) = assay: EGO10 collar application to roses; type: in vivo
Experimental: Three replicates on experiments were done in two commercial plots. EGO10 was applied at the indicated concentrations as a collar in Eppendorf tube (FIG. 24).
HPC+glycerin and EGO10 (25 or 50 μM), provided in rigid tubes, were applied as described above (Example 13) to roses (Rosa hybrid golden gate). 20 days following application of the formulation by the delivery device, the length of axillary buds (in centimeters) was measured and the number of lateral buds was counted.

Hypericum plants = assay: EGO10 collar and granules application to Hypericum plants; type: in vivo, Hypericum calycinum or Hypericum perforatum
Experimental: EGO10 (25 and 50 μM) with HPC+glycerin were applied in rigid tubes, as described above (Example 13) to Hypericum calycinum or Hypericum perforatum (Ivory Spices of Danziger, result of breeding for ornamental). Two replicates on experiments were done in the greenhouse. EGO10 was applied at the indicated concentrations as a collar. Also, EGO10 was applied in another, new way of application—as granules of slow release of 3×10^−8 M—that were applied in the soil, close to the root zone. […] An example to the results of the collar treatment is in FIG. 27.

Pomegranate = assay: EGO10 collar application to pomegranate in commercial nursery; type: in vivo, Punica granatum; details: 50 μM as collar in Eppendorf tubes
Experimental: (§1) Two replicates on experiments were performed in commercial nursery.

Almond = assay: EGO10 granules and collar application to almond in commercial nursery; type: in vivo, Prunus dulcis
Experimental: as §1

[1] = tested on: Tomato (Shirez, Ikram cultivars); assay: EGO10 collar, irrigation and granules application to greenhouse tomato; type: in vivo, Solanum lycopersicum; details: for side branches: collar of 500 μM; for side branch weight: collars 25 and 50 μM
Text: Greenhouse tomato (Shirez, Ikram and other cultivars) are one of the crops that necessitate vast investment in the constant trimming of side branches. Hand labor is needed for this trimming, on an everyday basis, to avoid significant yield loses. The constant trimming is a cause for infection at trimming sites. […] For these experiments two cultivars of greenhouse tomato were used, Ikram and Shirez, both vigorously producing side branches that should be trimmed under commercial growth conditions.
Also, treatments that include irrigation with 3×10^−6 M (once a week for 6 weeks, 5 ml) and granules application (controlled release at that same concentration of 3×10^−6 M) were applied. Each treatment consisted of 20 plants, blocks of 4 plants were randomly distributed in the greenhouse.
Following, and to increase the possible effect of EGO10 on tomato branching, additional experiment was performed with tomato plants were treated with collar of 500 μM EGO10.

Tomato (Ikram cultivar) = assay: EGO10 collar combined with auxin spray on tomato; type: in vivo, Solanum lycopersicum
Experimental: The effect of EGO 10 combined with auxin was tested. […] Collar was applied 50 μM of EGO10 (FIG. 32) with a auxin daily spray (IAA) 5 ppm on the shoot tip. Also treatment with only the 50 μM collar of EGO10, an IAA treatment with no collar as a control for the auxin treatment and a control with no treatment were applied. Each treatment consisted of 10-12 plants, blocks of 4 plants were randomly distributed in the greenhouse.

CC1=C[C@H](O/C=C2\Cc3c(n(C)c4ccccc34)C2=O)OC1=O [EGO10]
plant growth (olive seedling; 10 μM with HPC+glycerin, greenhouse): without delaying plant growth
bud outgrowth (olive seedling; 10 μM with HPC+glycerin, greenhouse, 30 days, not significantly different from control): some inhibition of bud outgrowth
growth of treated olive buds (olive seedling; 50 μM with HPC+glycerin): grew properly
bud outgrowth (olive seedling; 50 μM with HPC+glycerin, until day 30, vs acetone+HPC+glycerin): significantly inhibits bud outgrowth
application site (bark and vascular system) after removal of the apparatus (olive seedlings): unharmed and functional
seedling outgrowth (olive seedlings; 75 days): not inhibited
number of wake up buds (bud outgrowth) (olive seedlings; rigid tubes, 75 days, vs acetone+HPC+glycerin): inhibits bud outgrowth significantly
plant architecture (olive seedlings; control seedlings bushy): one or two leading branches
lateral branching (Roses (Rosa Hybrida); 25 or 50 μM with HPC+glycerin, collar in rigid tubes, 20 days): clear tendency of reduction of lateral branching
development of water branches (Roses (Rosa Hybrida); collar, 25 or 50 μM): did not hinder development
no. of axillary branches (Hypericum plants; 50 μM as collar in Eppendorf tubes, not significantly different): marked reduction in the no. of axillary branches
no. of axillary branches (Hypericum plants; granules of slow release of 3×10^−8 M in the soil): did not result with substantial changes in the no. of axillary branches
number of axillary branches (Pomegranate): marked and significant reduction in the number of axillary branches
number of axillary branches (Almond; 3×10^−8 M as granules of controlled release): marked and significant reduction in the number of axillary branches
number of axillary branches (Almond; both granules and collar): reduced the inhibitory effect of the granules on side branches
yield determined as number of fruit ([1]; Ikram, EGO10 treated plants): increased
side branches ([1]; Ikram): significant reduction in side branches
side branch weight ([1]; Ikram): reduced to some extent branching
side branches ([1]; Shirez): did not respond
side branch weight ([1]; Shirez, irrigation, granules): did not change significantly branching
bud outgrowth above the collar (Tomato (Ikram cultivar); 50 μM collar only): more moderate and not consistent respond
bud outgrowth above the collar (Tomato (Ikram cultivar); 50 μM collar with auxin (IAA) daily spray 5 ppm): clear inhibition of bud outgrowth
